Data from US10377998B2, “CRISPR-CAS systems and methods for altering expression of gene products, structural information and inducible modular CAS enzymes” (The Broad Institute, Inc., priority 2013, dated 2019).

Columns and labels:
[1] = Double nicking indel formation with sgRNA pairs; format: cell-based; settings: substitution of Cas9n in double nicking, eukaryotic system
Description: Aspects of the invention relate to the expression of the gene product being decreased or a template polynucleotide being further introduced into the DNA molecule encoding the gene product or an intervening sequence being excised precisely by allowing the two 5′ overhangs to reanneal and ligate or the activity or function of the gene product being altered or the expression of the gene product being increased. In an embodiment of the invention, the gene product is a protein. Only sgRNA pairs creating 5′ overhangs with less than 8 bp overlap between the guide sequences (offset greater than −8 bp) were able to mediate detectable indel formation. […] Nonetheless, a pair of sgRNAs that will generate a 5′ overhang with Cas9n should in principle generate the corresponding 3′ overhang instead, and double nicking. […] Accordingly, in some embodiments, a recombination template is also provided. A recombination template may be a component of another vector as described herein, contained in a separate vector, or provided as a separate polynucleotide. In some embodiments, a recombination template is designed to serve as a template in homologous recombination, such as within or near a target sequence nicked or cleaved by a CRISPR enzyme as a part of a CRISPR complex. […]

[2] = system: Factor VII; settings: LNP siRNA systems containing these lipids, hepatocytes in vivo; cited from earlier work

In the case of Cas9H840A: Cas9 with H840A mutation, the “indel formation with sgRNA pair” value [1] is reported as “no indel formation is observed”.
For `CCCCC/C=C\C/C=C\CCCCCCCC(=O)OCC(CN(C)C)OC(=O)CCCCCCC/C=C\C/C=C\CCCCC` (centres unmarked) [DLinDAP, 1,2-dilineoyl-3-dimethylammonium-propane], the “gene silencing potency series” value [2] is given as “DLinKC2-DMA>DLinKDMA>DLinDMA>>DLinDAP”.
For `CCCCC/C=C\C/C=C\CCCCCCCCC1(CCCCCCCC/C=C\C/C=C\CCCCC)OCC(CCN(C)C)O1` (centres unmarked) [DLinKC2-DMA, 1,2-dilinoleyl-4-(2-dimethylaminoethyl)-[1,3]-dioxolane], the “gene silencing potency series” value [2] is given as “DLinKC2-DMA>DLinKDMA>DLinDMA>>DLinDAP”.
In the case of “1,2-dilinoleyloxy-keto-N,N-dimethyl-3-aminopropane [DLinKDMA]”, the “gene silencing potency series” value [2] is listed as “DLinKC2-DMA>DLinKDMA>DLinDMA>>DLinDAP”.
In the case of `CCCCC/C=C\C/C=C\CCCCCCCCOCC(CN(C)C)OCCCCCCCC/C=C\C/C=C\CCCCC` (centres unmarked) [DLinDMA, 1,2-dilinoleyloxy-3-N,N-dimethylaminopropane], the “gene silencing potency series” value [2] is given as “DLinKC2-DMA>DLinKDMA>DLinDMA>>DLinDAP”.
